# Experimental data from the kinase profiling compilation of Christmann-Franck et al. (2016).
# How the values were obtained:
# Conditions in all cases: compound 10.0 µM
# [1] = molecular target: ANKK1 (human) (UniProt Q8NFD2)
# [2] = tested on: KIT (human), P10721 [D816H]
# [3] = molecular target: MAPK15 (human) (UniProt Q8TD08)
# [4] = tested on: EGFR (human), P00533 [A750P; 747-749 del]
# [5] = molecular target: FRK (human) (UniProt P42685)
# [6] = molecular target: EPHB4 (human) (UniProt P54760)
# [7] = tested on: ABL1 (human), P00519 [Y253F]
# [8] = tested on: EGFR (human), P00533 [746-750 del]
# [9] = molecular target: LCK (human) (UniProt P06239)
# [10] = molecular target: KDR (human) (UniProt P35968)
# [11] = molecular target: CSF1R (human) (UniProt P07333)
# [12] = tested on: KIT (human), P10721 [A829P]
# [13] = molecular target: MYLK3 (human) (UniProt Q32MK0)
# [14] = tested on: ABL1 (human), P00519 [M351T]
# Sequence of LCK (human) (P06239 whole entry, looked up): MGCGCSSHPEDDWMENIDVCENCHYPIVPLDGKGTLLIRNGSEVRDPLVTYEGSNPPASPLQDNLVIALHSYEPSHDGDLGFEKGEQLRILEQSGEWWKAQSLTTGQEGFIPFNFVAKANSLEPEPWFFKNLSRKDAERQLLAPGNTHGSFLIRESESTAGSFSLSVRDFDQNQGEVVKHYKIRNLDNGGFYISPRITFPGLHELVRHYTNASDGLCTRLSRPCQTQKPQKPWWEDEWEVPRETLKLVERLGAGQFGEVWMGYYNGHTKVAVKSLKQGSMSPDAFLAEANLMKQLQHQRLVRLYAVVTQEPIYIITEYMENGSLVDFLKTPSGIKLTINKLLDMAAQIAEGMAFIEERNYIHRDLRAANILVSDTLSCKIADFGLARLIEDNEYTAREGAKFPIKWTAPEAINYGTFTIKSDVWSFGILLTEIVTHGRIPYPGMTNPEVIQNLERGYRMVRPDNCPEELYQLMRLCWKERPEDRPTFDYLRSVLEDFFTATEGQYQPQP
# Sequence of CSF1R (human) (P07333 whole entry, looked up): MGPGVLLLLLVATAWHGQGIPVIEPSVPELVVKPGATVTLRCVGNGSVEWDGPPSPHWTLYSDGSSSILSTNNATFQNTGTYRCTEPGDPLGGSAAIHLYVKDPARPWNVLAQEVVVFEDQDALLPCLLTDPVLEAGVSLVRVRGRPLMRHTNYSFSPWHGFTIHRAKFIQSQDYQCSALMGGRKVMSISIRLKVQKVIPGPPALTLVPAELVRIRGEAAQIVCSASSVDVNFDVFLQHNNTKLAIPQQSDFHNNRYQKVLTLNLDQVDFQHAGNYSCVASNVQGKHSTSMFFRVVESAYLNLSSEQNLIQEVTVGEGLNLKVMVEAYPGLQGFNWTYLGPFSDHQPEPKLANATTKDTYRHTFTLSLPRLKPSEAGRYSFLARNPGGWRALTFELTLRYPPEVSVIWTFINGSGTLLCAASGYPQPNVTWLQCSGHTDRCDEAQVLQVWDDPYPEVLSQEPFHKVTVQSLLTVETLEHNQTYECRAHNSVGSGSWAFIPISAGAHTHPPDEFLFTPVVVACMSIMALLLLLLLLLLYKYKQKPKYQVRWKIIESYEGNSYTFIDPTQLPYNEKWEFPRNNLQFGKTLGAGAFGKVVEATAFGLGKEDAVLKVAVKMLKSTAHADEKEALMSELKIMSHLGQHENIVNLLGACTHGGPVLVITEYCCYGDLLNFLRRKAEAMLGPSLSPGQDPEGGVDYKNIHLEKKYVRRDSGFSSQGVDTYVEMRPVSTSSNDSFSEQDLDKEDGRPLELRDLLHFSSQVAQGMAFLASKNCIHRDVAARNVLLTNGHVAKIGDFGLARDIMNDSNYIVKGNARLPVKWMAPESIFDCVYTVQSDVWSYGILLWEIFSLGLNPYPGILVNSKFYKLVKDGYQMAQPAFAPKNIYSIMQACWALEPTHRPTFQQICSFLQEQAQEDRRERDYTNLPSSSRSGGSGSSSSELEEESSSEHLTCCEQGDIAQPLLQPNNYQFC
# Sequence of KDR (human) (P35968 whole entry, looked up): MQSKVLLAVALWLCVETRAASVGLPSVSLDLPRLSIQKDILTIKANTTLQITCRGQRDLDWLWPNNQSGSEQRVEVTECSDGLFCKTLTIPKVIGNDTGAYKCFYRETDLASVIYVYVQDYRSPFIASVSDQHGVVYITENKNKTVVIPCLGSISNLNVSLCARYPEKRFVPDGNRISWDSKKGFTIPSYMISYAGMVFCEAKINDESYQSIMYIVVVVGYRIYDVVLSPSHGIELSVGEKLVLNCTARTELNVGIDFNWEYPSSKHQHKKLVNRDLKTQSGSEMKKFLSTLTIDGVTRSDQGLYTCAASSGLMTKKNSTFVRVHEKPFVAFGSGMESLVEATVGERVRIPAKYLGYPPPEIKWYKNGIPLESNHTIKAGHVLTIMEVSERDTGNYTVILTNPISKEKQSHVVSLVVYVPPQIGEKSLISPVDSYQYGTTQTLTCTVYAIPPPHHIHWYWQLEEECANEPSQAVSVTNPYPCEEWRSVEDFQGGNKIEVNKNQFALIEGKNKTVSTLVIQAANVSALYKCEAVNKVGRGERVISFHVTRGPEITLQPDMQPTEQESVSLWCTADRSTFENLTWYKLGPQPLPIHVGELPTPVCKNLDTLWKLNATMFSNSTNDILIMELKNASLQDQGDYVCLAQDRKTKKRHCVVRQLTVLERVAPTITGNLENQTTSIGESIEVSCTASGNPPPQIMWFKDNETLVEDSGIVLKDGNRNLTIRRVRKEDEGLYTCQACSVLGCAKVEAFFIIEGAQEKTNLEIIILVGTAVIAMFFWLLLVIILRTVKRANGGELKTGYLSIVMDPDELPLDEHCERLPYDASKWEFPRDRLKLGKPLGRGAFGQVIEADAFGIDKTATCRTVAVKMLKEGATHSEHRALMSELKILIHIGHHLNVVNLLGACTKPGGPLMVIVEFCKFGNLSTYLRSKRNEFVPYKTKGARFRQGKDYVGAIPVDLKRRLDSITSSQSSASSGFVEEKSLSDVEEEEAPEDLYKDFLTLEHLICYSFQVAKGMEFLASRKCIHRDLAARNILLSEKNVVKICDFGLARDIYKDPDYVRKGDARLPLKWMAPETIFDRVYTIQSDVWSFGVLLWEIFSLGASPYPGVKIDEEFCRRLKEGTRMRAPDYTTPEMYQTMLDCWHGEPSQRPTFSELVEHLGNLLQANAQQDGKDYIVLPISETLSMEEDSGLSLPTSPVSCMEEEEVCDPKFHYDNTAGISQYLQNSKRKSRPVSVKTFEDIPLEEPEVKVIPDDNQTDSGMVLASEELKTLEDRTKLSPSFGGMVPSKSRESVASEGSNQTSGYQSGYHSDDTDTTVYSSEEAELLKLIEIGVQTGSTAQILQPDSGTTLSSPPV
# Sequence of KIT (human), P10721 [A829P] (P10721 whole entry A829P, looked up): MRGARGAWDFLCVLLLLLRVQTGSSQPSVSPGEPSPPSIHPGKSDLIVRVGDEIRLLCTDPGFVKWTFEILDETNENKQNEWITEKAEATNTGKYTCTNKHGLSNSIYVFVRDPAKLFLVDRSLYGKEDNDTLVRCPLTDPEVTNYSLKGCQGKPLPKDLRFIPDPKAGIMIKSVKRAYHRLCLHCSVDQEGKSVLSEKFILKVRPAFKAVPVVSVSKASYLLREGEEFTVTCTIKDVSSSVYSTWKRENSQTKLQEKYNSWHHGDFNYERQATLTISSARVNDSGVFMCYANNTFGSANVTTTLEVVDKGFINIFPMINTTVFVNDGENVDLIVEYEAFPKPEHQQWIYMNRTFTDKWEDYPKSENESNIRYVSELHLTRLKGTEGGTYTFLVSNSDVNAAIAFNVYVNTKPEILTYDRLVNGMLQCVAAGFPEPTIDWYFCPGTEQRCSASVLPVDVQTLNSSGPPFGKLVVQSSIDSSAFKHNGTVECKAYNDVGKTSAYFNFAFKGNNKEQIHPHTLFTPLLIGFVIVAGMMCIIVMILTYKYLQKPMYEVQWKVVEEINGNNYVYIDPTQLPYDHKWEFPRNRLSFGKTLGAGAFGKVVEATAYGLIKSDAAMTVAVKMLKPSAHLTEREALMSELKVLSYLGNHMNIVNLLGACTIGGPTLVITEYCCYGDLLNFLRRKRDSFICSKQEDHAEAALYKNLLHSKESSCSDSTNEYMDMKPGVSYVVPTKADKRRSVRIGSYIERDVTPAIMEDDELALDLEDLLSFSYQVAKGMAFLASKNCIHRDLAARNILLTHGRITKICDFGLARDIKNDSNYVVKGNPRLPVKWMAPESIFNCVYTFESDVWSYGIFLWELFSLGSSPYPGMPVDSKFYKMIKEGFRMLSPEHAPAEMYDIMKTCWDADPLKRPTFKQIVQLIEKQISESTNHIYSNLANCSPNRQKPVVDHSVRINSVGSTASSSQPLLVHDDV
# Sequence of FRK (human) (P42685 whole entry, looked up): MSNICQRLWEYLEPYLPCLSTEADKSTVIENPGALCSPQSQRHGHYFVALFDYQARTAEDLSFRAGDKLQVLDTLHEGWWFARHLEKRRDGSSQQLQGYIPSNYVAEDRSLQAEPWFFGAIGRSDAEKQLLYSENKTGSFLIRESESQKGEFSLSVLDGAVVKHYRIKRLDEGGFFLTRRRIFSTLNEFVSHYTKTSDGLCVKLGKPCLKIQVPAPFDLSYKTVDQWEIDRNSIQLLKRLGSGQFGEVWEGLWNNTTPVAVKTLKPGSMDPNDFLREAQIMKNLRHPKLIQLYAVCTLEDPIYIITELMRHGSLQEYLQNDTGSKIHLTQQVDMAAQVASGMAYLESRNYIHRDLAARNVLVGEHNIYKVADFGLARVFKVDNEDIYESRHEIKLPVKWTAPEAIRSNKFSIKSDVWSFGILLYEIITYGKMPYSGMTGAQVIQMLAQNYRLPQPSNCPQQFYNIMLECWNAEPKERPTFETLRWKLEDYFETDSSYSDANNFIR
# Sequence of KIT (human), P10721 [D816H] (P10721 whole entry D816H, looked up): as the sequence (P10721 whole entry A829P, looked up) above, with D816H, P829A counted along it
# Sequence of MAPK15 (human) (Q8TD08 whole entry, looked up): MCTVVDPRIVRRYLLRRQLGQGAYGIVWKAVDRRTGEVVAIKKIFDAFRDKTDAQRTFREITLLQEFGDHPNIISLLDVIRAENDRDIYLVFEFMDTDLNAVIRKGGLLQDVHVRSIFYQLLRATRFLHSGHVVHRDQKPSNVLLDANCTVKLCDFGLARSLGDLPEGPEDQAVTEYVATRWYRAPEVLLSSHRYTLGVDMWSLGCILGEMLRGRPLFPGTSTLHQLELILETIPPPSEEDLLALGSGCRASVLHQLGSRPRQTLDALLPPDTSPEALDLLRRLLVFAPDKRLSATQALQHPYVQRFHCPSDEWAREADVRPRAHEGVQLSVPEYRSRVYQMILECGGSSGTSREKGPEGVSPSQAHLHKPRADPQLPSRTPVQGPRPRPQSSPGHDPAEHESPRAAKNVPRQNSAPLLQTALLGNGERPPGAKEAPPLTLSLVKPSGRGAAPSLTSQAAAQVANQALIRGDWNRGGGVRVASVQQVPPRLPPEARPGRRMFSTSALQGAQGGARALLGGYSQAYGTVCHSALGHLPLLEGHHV
smiles,measurement,setting,value
CNC(=O)c1cc(Oc2ccc(NC(=O)Nc3ccc(Cl)c(C(F)(F)F)c3)cc2)cc[n+]1[O-],per cent of control,[1],58%
same,per cent of control,[2],17%
same,per cent of control,[3],0.6%
same,per cent of control,[4],70%
same,per cent of control,[5],1.8%
same,per cent of control,[6],16%
same,per cent of control,[7],30%
same,per cent of control,[8],84%
same,per cent of control,[9],2.5%
same,per cent of control,[10],0.4%
same,per cent of control,[11],0%
same,per cent of control,[12],26%
same,per cent of control,[13],2.8%
same,per cent of control,[14],21%
